PubChem BioAssay (NCI)
Values joined by “and” are separate entries in the source; they are usually repeats but may differ in a detail not shown here. Equal values may be shown once.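 Each compound was tested at five concentrations against cells in 96-well plates for 48 hours. Abbreviation: GI50, concentration required for 50% inhibition of growth. At the TGI there is no net growth.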

How the values were obtained:
Experiment in all cases: NCI anticancer screen, dose series, 48 h
[1] = tested on: DU-145 prostate
[2] = tested on: EKVX NSCLC
[3] = tested on: IGROV1 ovarian
[4] = tested on: K-562 leukemia
[5] = tested on: NCI-H226 lung
[6] = tested on: NCI-H23 lung
[7] = tested on: NCI-H522 lung
[8] = tested on: NCI/ADR-RES ovarian
[9] = tested on: SK-MEL-5 melanoma
[10] = tested on: UACC-257 melanoma

Structure (SMILES)	GI50 [1]	TGI [1]	GI50 [2]	TGI [2]	GI50 [3]	TGI [3]	GI50 [4]	TGI [4]	GI50 [5]	TGI [5]	GI50 [6]	TGI [6]	GI50 [7]	TGI [7]	GI50 [8]	TGI [8]	GI50 [9]	TGI [9]	GI50 [10]	TGI [10]
COc1ccc(N2C(=O)C(c3ccccc3)(c3ccccc3)C23C(=O)N(C)c2ccccc23)cc1 (stereo not drawn)	> 100 µM	> 100 µM	> 100 µM	> 100 µM	> 100 µM	> 100 µM	> 100 µM	> 100 µM	> 100 µM	> 100 µM	> 100 µM	> 100 µM	> 100 µM	> 100 µM	> 100 µM	> 100 µM	> 100 µM	> 100 µM	> 100 µM	> 100 µM
CC[C@]12C=CCN3CC[C@@]4(c5ccc(OC)cc5N(C)[C@H]4[C@@](O)(C(=O)OC)[C@@H]1OC(=O)CCC[P+](c1ccccc1)(c1ccccc1)c1ccccc1)[C@@H]32	1.09 µM and 0.768 µM	6.47 µM and 11.8 µM	1.17 µM and 2.73 µM	10 µM and 18.2 µM	0.235 µM and 0.394 µM	0.923 µM and 1.61 µM	0.561 µM and 0.421 µM	8.23 µM and 5.98 µM	1.91 µM and 1.93 µM	8.62 µM and 12.4 µM	1.11 µM and 0.984 µM	5.5 µM and 7.77 µM	0.247 µM and 0.342 µM	5.37 µM and 1.41 µM	> 50 µM and 68.9 µM	> 100 µM	0.817 µM and 1.65 µM	1.53 µM and 3.02 µM	0.364 µM and 0.275 µM	1.82 µM and 0.94 µM
Clc1coc2nc3ccccc3c(Nc3ccc4c(c3)OCO4)c12	2.58 µM	17.2 µM	5.35 µM	30.4 µM	5.95 µM	> 100 µM	0.498 µM	–	2.35 µM	> 26.2 µM	0.983 µM	22 µM	2.17 µM	> 23.3 µM	0.512 µM	8.01 µM	1.46 µM	5.78 µM	9.15 µM	26.1 µM
C/C1=C\CC[C@@]2(C)O[C@@H]2[C@H]2OC(=O)[C@@H](CN(C)C)[C@@H]2CC1	4.75 µM	28.1 µM	21.1 µM	41.8 µM	17.9 µM	34.2 µM	2.54 µM	59.1 µM	20.4 µM	40.6 µM	19.2 µM	40 µM	2.65 µM	7.06 µM	14.7 µM	59.9 µM	8.14 µM	29.7 µM	12.8 µM	28.4 µM
C=C(C)[C@@]12OC3(/C=C/C=C/CCCCC)O[C@@H]1[C@@H]1[C@@H]4O[C@]4(CO)[C@@H](O)[C@]4(O)C(=O)C(C)=C[C@H]4[C@@]1(O3)[C@H](C)[C@H]2OC(=O)c1ccccc1	0.105 µM	2.11 µM	1.28 µM	2.86 µM	1.62 µM	3.18 µM	< 0.01 µM	1.87 µM	1.68 µM	3.21 µM	2.84 µM	8.12 µM	1.27 µM	2.71 µM	3.13 µM	8.9 µM	< 0.01 µM	1.86 µM	8.13 µM	21.5 µM
CCOC(=O)/C=C/C(C(=O)/C=C/c1ccc(OC2CCCCO2)c(OC)c1)=C(O)\C=C\c1ccc(OC2CCCCO2)c(OC)c1 (stereo not drawn)	7.01 µM	42.6 µM	10.7 µM	> 100 µM	2.85 µM	6.68 µM	2.62 µM	75 µM	12.9 µM	34.7 µM	5.9 µM	18.7 µM	2.22 µM	6.68 µM	10.6 µM	46.3 µM	4.44 µM	16.5 µM	19.8 µM	78.4 µM
Cc1c2cccnc2c(C)c2c1c1cc(CO)ccc1n2C	3.09 µM	11.9 µM	1.4 µM	9.86 µM	0.579 µM	9.34 µM	1.66 µM	20.6 µM	0.264 µM	1.33 µM	2.31 µM	16 µM	1.98 µM	6.53 µM	1.3 µM	8.51 µM	1.75 µM	5.12 µM	1.51 µM	4.25 µM
O=C(c1ccccc1)c1cc(Cl)ccc1OCCCCN1CCN(CCCCOc2ccc(Cl)cc2C(=O)c2ccccc2)CC1	2.74 µM	10.1 µM	10.8 µM	24.7 µM	1.6 µM	3.22 µM	1.9 µM	4.87 µM	13.2 µM	32.2 µM	4.73 µM	18.3 µM	2.09 µM	3.83 µM	2.93 µM	12 µM	2.34 µM	4.88 µM	3.07 µM	7.57 µM
C[As](C)SC1OC(CO)C(O)C1O (stereo not drawn)	0.189 µM	0.799 µM	0.877 µM	10.4 µM	1.32 µM	6.56 µM	0.131 µM	2.03 µM	1.18 µM	5.21 µM	0.61 µM	3.89 µM	0.167 µM	0.477 µM	0.825 µM	5.75 µM	0.215 µM	0.583 µM	1.72 µM	13.6 µM
CC(=O)OC1Oc2ccccc2-c2oc(=O)c(-c3cc(=O)oc4cc(O)ccc34)cc21 (stereo not drawn)	19.4 µM	50.5 µM	17.5 µM	49.3 µM	20.8 µM	83.6 µM	9.45 µM	> 100 µM	27.1 µM	67.3 µM	5.53 µM	25.6 µM	16.9 µM	43 µM	18.1 µM	44.6 µM	13.2 µM	26.5 µM	23.9 µM	79 µM
O=c1n(CC2CO2)c(=O)n(CC2CO2)c(=O)n1CC1CO1 (stereo not drawn)	11 µM and 3.22 µM	66.2 µM and 127 µM and 37.3 µM	–	175 µM	24.9 µM and 7.31 µM	96 µM and > 100 µM	40.3 µM and 26.5 µM	308 µM and > 100 µM	22.6 µM and 10.9 µM	78.3 µM and 103 µM and 45.9 µM	14.2 µM and 7.3 µM	90.9 µM and > 100 µM	11.2 µM and 3.9 µM	28 µM and 45.8 µM and 22.9 µM	16.3 µM and 11.7 µM	237 µM and > 100 µM	16.8 µM and 25.3 µM and 9.6 µM	37.3 µM and 79.6 µM and 75.6 µM	15.4 µM	38.4 µM and 109 µM
C=C(C=O)C1CCC2(C(=O)O)CCC3(C)C(CCC4C5(C)CCC(O)C(C)(C)C5CCC43C)C12 (stereo not drawn)	1.6 µM	3.55 µM	6.23 µM	> 61.7 µM	1.92 µM	4.21 µM	2.72 µM	> 100 µM	14.3 µM	> 100 µM	1.63 µM	3.3 µM	1.96 µM	5 µM	1.79 µM	5.57 µM	1.52 µM	2.84 µM	2.05 µM	5.48 µM
